According to patent US8178699B2, “Modulators of CCR9 receptor and methods of use thereof” (Pfizer Inc., priority 2008, dated 2012):
Structures can show the parent of a compound that is named as a salt.

Target: T1, human CCR9 receptor (Homo sapiens, UniProt P51686)
T1 construct: expressed in transfected cells
T1 sequence (P51686 1-369): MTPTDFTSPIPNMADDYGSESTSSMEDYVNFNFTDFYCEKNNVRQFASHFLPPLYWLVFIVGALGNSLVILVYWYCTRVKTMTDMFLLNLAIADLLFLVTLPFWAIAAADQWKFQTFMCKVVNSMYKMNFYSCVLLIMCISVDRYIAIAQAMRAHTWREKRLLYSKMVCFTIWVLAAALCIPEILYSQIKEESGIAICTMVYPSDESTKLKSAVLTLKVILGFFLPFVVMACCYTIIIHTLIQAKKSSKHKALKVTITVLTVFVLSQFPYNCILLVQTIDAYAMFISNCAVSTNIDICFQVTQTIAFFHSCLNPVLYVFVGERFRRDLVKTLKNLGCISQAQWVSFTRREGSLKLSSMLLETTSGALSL
Assay: CCR9 FLIPR/FlexStation Assay (inhibition of TECK induced calcium mobilization)
Format: cell-based
Conditions: CCR9 antagonist activity; TECK induced calcium mobilization in CCR9-Flp-CHO cells stably over expressing human CCR9; rhTECK at EC70; read-out: Binding IC50
Source text: Exemplary methods are described in US Publication Nos. US2004/0180892 and US2005/0049286, which are incorporated herein by reference. An exemplary assay for determining CCR9 antagonist activity of the compounds provided herein is CCR9 FLIPR/FlexStation Assay. In certain embodiments, the following protocol is used for the assay:
CCR9 FLIPR/FlexStation Assay Protocol
Calcium assay in FLIPR/FlexStation determines inhibitors of TECK induced calcium mobilization in CCR9-Flp-CHO cells that stably over express human CCR9 receptor. CCR9-Flp-CHO cells are seeded at 25,000 cells/well in a clear bottom, black wall 96-well plate (Greiner #655090) one day prior to assay. Cells are grown in a tissue culture incubator at 37° C. with 5% CO2 for 18 to 24 hours.
Wash buffer and dye loading buffer are prepared fresh each time the assay is performed. Wash buffer is prepared according to the following protocol: 20 ml 10×HBSS (Invitrogen Gibco #14065-056), 4 ml 1M HEPES (Sigma H3784), 174 ml sterile deionized water; then add 140 mg probenecid (Sigma P8761) dissolved in 2 ml 1M NaOH (Fisher S318) to solution and pH to 7.4. This wash buffer contains 1×HBSS, 20 mM HEPES and 2.5 mM probenecid. For one 96-well plate, dye loading buffer is prepared as following: 11 ml wash buffer, 44 μl Fluo-4/pluoronic acid mix (prepared from 22 μL aliquot of 2 mM Fluo-4 (Molecular Probes F14202, 1 mg/tube)+22 μl 20% pluronic F-127 (Molecular Probes P3000MP).
Cells are loaded with dye according to the protocol below:
1. Prepare wash buffer with 1×HBSS/HEPES at room temperature
2. Prepare loading buffer (keep in dark)
3. Aspirate culture media and wash with 100 μl wash buffer per well×1
4. Add 100 μl dye loading buffer to each well
5. Incubate at 37° C. for 30 minutes
6. Aspirate loading buffer
7. Wash with 100 μl wash buffer per well×3
8. Add 100 μl wash buffer per well
9. Incubate at 37° C. for 30 minutes
10. Assay plate with FLIPR or FlexStation
10 mM stock compounds in DMSO are prepared and diluted in DMSO to 1 mM. Compounds are diluted in wash buffer to make 8 point series dilutions containing same final concentration of DMSO (1%). Compounds are tested in duplicate wells for each point. Ligand rhTECK (R&D Systems 334-TK) was diluted to 6× of its EC70 with wash buffer. Appropriate amount of 6× ligand is added to each well. Data is analyzed using XLfit3 software to calculate IC50 value of antagonist activity for each compound.
CCR9 antagonist activity of exemplary compounds was determined using CCR9 FLIPR/FlexStation Assay as described in Section 4.4 and is provided in Table 1 below. The IC50 for the compounds are represented as follows: A≦100 nM; B>100-500 nM; C>500 nM.

- IC50: ≤ 100 nM
Compound: CC(C)(C)c1ccc(S(=O)(=O)Nc2ccsc2C(=O)O)c(Cl)c1 [Example 6, 3-(4-tert-Butyl-2-chlorophenylsulfonamido)thiophene-2-carboxylic acid, disodium salt]
